Assays:
[1] = target: T1, CYP2B1 (Rattus norvegicus, UniProt P00176); type: in vitro ADME
T1 construct: consisting of pooled HLMs (0.5 mg/ml) or RLMs (1 mg/ml) and an NADPH-regenerating system; from tissue; host or cells: rat liver microsomes prepared in house
T1 sequence (P00176 1-491): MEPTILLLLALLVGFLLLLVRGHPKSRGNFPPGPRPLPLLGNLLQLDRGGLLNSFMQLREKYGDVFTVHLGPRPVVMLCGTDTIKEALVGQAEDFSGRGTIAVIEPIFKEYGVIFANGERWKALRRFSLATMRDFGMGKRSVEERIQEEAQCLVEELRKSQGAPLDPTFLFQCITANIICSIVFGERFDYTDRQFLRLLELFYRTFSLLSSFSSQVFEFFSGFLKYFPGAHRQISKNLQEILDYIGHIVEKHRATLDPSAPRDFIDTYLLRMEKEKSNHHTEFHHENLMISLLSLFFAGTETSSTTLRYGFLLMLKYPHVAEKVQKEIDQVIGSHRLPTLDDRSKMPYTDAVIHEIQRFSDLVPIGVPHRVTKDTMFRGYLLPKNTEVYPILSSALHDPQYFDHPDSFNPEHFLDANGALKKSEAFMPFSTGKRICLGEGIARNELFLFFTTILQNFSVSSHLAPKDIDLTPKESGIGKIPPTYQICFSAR
Method: (§1) In this study, the rats were fasted overnight and killed by cervical dislocation before removal of the liver. The liver was excised, rinsed with ice-cold saline (0.9% NaCl w/v), weighed and homogenized in a […] Tris/KCl buffer (pH 7.4). Subsequently, the homogenate was centrifuged at 10,000 × g at 4 °C for 30 min. The supernatant was then centrifuged at 105,000 × g at 4 °C for 60 min. The pellet was reconstituted with […] Tris/KCl buffer (pH 7.4) and stored at −150 °C until use. The protein concentration of the liver microsomes was determined by a protein quantitative assay using bicinchoninic acid[22].
(§2) Microsomal incubation was carried out at 37 °C in a mixture of 200 μl in 0.05 M Tris/HCl buffer (pH 7.4) consisting of pooled HLMs (0.5 mg/ml) or RLMs (1 mg/ml) and an NADPH-regenerating system including MgCl2 (5 mM), G6P (10 mM), G6PDH (0.4 U/ml) and NADP (1 mM). Substrates were added into the incubation mixture and obtained the final concentrations (10 μM phenacetin for CYP1A2, 20 μM bupropion for CYP2B1/6, 20 μM tolbutamide for CYP2C9/11, 5 μM dextromethorphan for CYP2D1/6, 20 μM chlorzoxazone for CYP2E1 and 10 μM midazolam for CYP3A2/4), which were close to Km respectively. The proportion of organic solvent was not higher than 1% (v/v) in the incubation mixture. After pre-incubation for 5 min, the reaction was initiated by addition of NADP. Incubations were performed for 20 min, stopped by adding 200 μl ice-cold acetonitrile. And then 20 μl internal standard solution was added (3-acetamidophenol 2 μg/ml, chlorpropamide 2 μg/ml and mebendazole 2 μg/ml). The solution was mixed thoroughly for 3 min and centrifuged for 10 min at 16,000 × g at 4 °C. The supernatant (60 μl) was transferred to autosampler vials, and 2 μl was injected into LC-MS/MS system.
(§3) The IC50 (concentration of inhibitor to cause 50% inhibition of original enzyme activity) values were determined with the same incubation condition above. The specific concentrations of plumbagin were ranged from 0.1 μM to 50 μM. The IC50 values were calculated by plotting relative activities over the logarithm of plumbagin concentrations using GraphPad Prism 5.0 (GraphPad software Inc., CA, USA).
(§4) Cocktail probe substrates were then added and incubated for 20 min. Reactions were stopped with 200 μl ice-cold acetonitrile. The samples were treated according to the microsomal incubation method and then injected into LC-MS/MS for analysis.
(§5) Kinetic studies were performed for determining the types of inhibition on CYP by plumbagin. Pooled HLMs (0.5 mg/ml) or RLMs (1 mg/ml) with plumbagin (1 μM, 2 μM, 5 μM and 10 μM) were incubated in 0.05 M Tris/HCl buffer (pH 7.4) for 20 min at 37 °C. A series of concentrations for cocktail probe substrates were used: 2.5–20 μM phenacetin for CYP1A2; 5–40 μM bupropion for CYP2B1/6; 5–40 μM tolbutamide for CYP2C9/11; 1.25–10 μM dextromethorphan for CYP2D1/6; 5–40 μM chlorzoxazone for CYP2E1; 2.5–80 μM midazolam for CYP3A2; and 0.625–5 μM midazolam for CYP3A4. Enzyme kinetics as well as statistical analysis were performed using GraphPad Prism 5.0.
(§6) All data were presented as mean ± SD. The IC50 values were fitted by non-linear regression analysis using GraphPad Prism 5.0. The kinetic parameters were obtained by fitting velocity data to kinetic models (Michaelis-Menten) using GraphPad Prism 5.0. The Lineweaver-Burk Plot (the reciprocal of reaction velocities versus the reciprocal of substrates concentrations) was used to determine the quality of fit to a specific inhibition model. The inhibition constant (Ki) was obtained by a secondary plot using the slopes of the primary Lineweaver-Burk Plot (Km/Vmax versus inhibitor concentrations). αKi was obtained from a secondary plot using the y-intercepts of the Lineweaver-Burk plot (1/Vmax versus inhibitor concentrations). All results were analyzed in quadruplicate. One-way analysis of variance was used to estimate the significance of differences. […]

[2] = target: T2, CYP3A2 (Rattus norvegicus, UniProt P05183); type: in vitro ADME
T2 construct: consisting of pooled HLMs (0.5 mg/ml) or RLMs (1 mg/ml) and an NADPH-regenerating system; from tissue; host or cells: rat liver microsomes prepared in house
T2 sequence (P05183 1-504): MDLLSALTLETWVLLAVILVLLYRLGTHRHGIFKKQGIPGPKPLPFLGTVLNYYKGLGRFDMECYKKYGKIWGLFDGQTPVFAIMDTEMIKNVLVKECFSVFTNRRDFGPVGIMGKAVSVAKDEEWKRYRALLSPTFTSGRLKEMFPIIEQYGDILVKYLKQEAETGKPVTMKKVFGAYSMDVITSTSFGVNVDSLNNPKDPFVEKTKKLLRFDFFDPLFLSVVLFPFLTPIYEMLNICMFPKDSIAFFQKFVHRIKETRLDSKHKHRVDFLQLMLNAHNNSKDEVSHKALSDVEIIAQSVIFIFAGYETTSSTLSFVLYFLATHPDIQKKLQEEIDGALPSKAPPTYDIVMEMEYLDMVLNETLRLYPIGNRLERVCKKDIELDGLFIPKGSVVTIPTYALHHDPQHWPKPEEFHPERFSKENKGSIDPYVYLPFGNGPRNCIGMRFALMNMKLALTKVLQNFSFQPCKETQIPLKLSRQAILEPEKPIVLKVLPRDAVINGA
Method: as §1, §2, §3, §4, §5, §6

Q: For `CC1=CC(=O)c2c(O)cccc2C1=O` [plumbagin, 5-hydroxy-2-methyl-1,4-naphthoquinone], which IC50 [1] is on record?
A: 5.86 µM

Q: And the Ki [1]?
A: 9.93 µM

Q: And the Type of inhibition [1]?
A: competitive

Q: And the IC50 [2]?
A: 8.47 µM

Source: publication PMC4916434, “Evaluation of the inhibition potential of plumbagin against cytochrome P450 using LC-MS/MS and cocktail approach” (Scientific Reports, 2016)
